Laboratory results taken from US20240398699A1 (COSMO TECHNOLOGIES LTD., priority 2017, published 2024).
≈ marks a conversion by molar mass, not a printed value. Like-named read-outs stand apart in the source and are kept apart here.

How the values were obtained:
[1] = target: T1, human PXR (Homo sapiens, UniProt O75469); test: PXR nuclear receptor luciferase reporter assay (Indigo Biosciences), agonist mode; type: cell-based; settings: for EC50: 3 independent experiments, read-out: Agonism of PXR transcriptional activity expressed as EC50 Molar (95% CI range)
T1 construct: host or cells: proprietary human cells engineered to express the hybrid receptor
T1 sequence (O75469 146-433 limits assumed): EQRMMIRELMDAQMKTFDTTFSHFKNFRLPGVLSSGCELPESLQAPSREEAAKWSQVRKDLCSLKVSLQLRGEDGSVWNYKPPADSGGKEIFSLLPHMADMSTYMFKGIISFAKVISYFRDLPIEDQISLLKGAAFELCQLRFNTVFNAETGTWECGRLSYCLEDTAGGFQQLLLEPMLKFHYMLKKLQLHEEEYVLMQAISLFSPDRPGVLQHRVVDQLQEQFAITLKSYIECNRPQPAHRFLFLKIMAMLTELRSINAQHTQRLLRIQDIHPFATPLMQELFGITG
Excerpt: This assay product from Indigo Biosciences (Pennsylvania, USA) utilizes cells that express a hybrid form of human PXR. The N-terminal sequence encoding the PXR DNA binding domain (DBD) was substituted with that of the yeast GAL4-DBD. The native PXR ligand binding domain (LBD) and other C-terminal domains remain intact and functional. Ligand interaction activates the receptor, causing it to bind to the GAL4 DNA binding sequence, which is functionally linked to a resident luciferase reporter gene. Thus, quantifying changes in luciferase activity in the treated reporter cells provides a sensitive surrogate measure of the changes in PXR activity. The principle application of this reporter assay system is in the screening of test samples to quantify any functional activity, either agonist or antagonist, that they may exert against human PXR. […] The p value was calculated using Prism parametric, paired t test analysis.

[2] = system: NFkB transcription factor; test: NFkB reporter assay (Indigo Biosciences), antagonist mode, TNFα stimulated human kidney epithelial cells; type: cell-based; settings: for IC50: Homo sapiens, Epithelial cell, 30 ng/mL TNFα, 24 hours, 2 independent experiments, read-out: Antagonism of NFkB activity IC50 Molar (95% CI range)
Experimental: The NFkB nuclear receptor assay system from Indigo Biosciences utilizes human kidney epithelial cells transiently transfected with an NF-kB reporter. The NFkB biologic activity measured as transcriptional activity from these reporter cells demands the same orchestration of all intracellular molecular interactions and events that can be expected to occur in vivo. Cells were treated under antagonist mode in the presence of 30 ng/mL TNFα to stimulate the NFkB inflammatory cascade. […] After 24 hours, luminescence which is proportional to NFkB transcriptional activity was quantitated. […] The p value was calculated using Prism parametric, paired t test analysis.

[3] = system: IL1β-induced synthesis of IL-8 in colonic epithelial cells; test: IL1β-induced IL-8 synthesis in colonic epithelial cells; type: cell-based
Excerpt: PMA or diacyl glycerol-activated PKC is important for T cell receptor or IgE-induced NFκB that occurs in immune cells, like T cells and mast cells, respectively. On the other hand, TNF or LPS-induced NFκB that occurs in colonic epithelial cells requires other signaling factors (TRAFs, TNFR-associated factors). Most importantly, for its relevance in IBS or IBD, NFκB biologic function was confirmed in colonic epithelial cells. […] These cell-dependent requirements for inducing inflammation imply that by acting on various target cells, rifamycin's anti-inflammatory potential is broad because dysregulated immune and epithelial cell interactions contribute to the pathogenesis of several GI disorders.

[4] = system: NFκB transcriptional activity; test: NFκB luciferase reporter cell line stimulated with PMA, TNFα or LPS; type: cell-based; settings: for IC50: 24 hr incubation
Experimental: To establish that NFκB inhibition occurs upon rifamycin-induced PXR activation, a reporter cell line expressing full length NFκB and harboring luciferase reporter gene functionally linked to upstream NFκB genetic response elements, was stimulated with either PMA, TNFα or LPS to induce NFκB. Rifamycin or rifaximin were dose-titrated onto these stimulated cells. After 24 hr incubation, luminescence correlating to NFκB transcriptional activity was quantified.

[5] = Safety and tolerability in healthy volunteers; type: in vivo, human
[6] = system: Methanobrevibacter smithii (DSMZ 11975); test: MIC (Minimum Inhibiting Concentration) on bacterial strain; type: cell-based
[7] = PMA stimulus, read-out: IC50, antagonism of PMA-induced NFκB activity
[8] = up to the highest concentration tested

CO[C@H]1/C=C/O[C@@]2(C)Oc3c(C)c(O)c4c(O)c(cc(O)c4c3C2=O)NC(=O)/C(C)=C\C=C\[C@H](C)[C@H](O)[C@@H](C)[C@@H](O)[C@@H](C)[C@H](OC(C)=O)[C@@H]1C [Rifamycin SV, (2S,12Z,14E,16S,17S,18R,19R,20R,21S,22R,23S,24E)-21-(acetyloxy)-6,9,17,19-tetrahydroxy-23-methoxy-2,4,12,16,18,20,22-heptamethyl-1,11-dioxo-1,2-dihydro-2,7-(epoxypentadeca[1,11,13]trienimino)naphtho[2,1-b]furan-5-ol]
EC50 [1]: 6.08 nM
times more potent than rifaximin in stimulating PXR transcriptional activity ([1]; from rifaximin at 30 μM vs rifamycin SV at 0.3 μM): 250 times
times more potent than rifampicin (PXR) ([1]; vs rifampicin, positive control): 180 times
times more potent than rifaximin at stimulating PXR transcriptional activity ([1]; vs rifaximin): 200-440 times
IC50 [2]: 23 nM
times more potent than rifaximin at inhibiting NFkB transcriptional activity ([2]; vs rifaximin): 4000 times
IL1β-induced synthesis of IL-8 [3]: significantly inhibited
IC50 ([4]; LPS stimulus, read-out: IC50, antagonism of LPS-induced NFκB activity): 3490 nM
times higher potency than rifaximin, PMA-induced NFκB activity ([4]; PMA stimulus): 6 times
IC50 [4, 7]: 15.6 nM
IC50 ([4]; TNFα stimulus, read-out: IC50, antagonism of TNFα-induced NFκB activity): 14800 nM
change in vital signs, BW, ECGs or laboratory parameters ([5]; after treatment, 600 mg t.i.d., 14 days): No significant change
change in liver or kidney functions ([5]; during the multiple doses treatment): No significant change
discontinuation due to AEs ([5]; tablets of Example 1, 600 mg t.i.d., 14 days): no subject discontinued the study due to AEs
severe AEs ([5]; tablets of Example 1, 600 mg t.i.d., 14 days, 18 healthy subjects): No severe AEs were reported

CO[C@H]1/C=C/O[C@@]2(C)Oc3c(C)c([O-])c4c(O)c(cc(O)c4c3C2=O)NC(=O)/C(C)=C\C=C\[C@H](C)[C@H](O)[C@@H](C)[C@@H](O)[C@@H](C)[C@H](OC(C)=O)[C@@H]1C.[Na+] [Rifamycin SV sodium]
MIC [6]: <1 µg/mL

CO[C@H]1/C=C/O[C@@]2(C)Oc3c(C)c(O)c4c(O)c(c5c(nc6cc(C)ccn65)c4c3C2=O)NC(=O)/C(C)=C\C=C\[C@H](C)[C@H](O)[C@@H](C)[C@@H](O)[C@@H](C)[C@H](OC(C)=O)[C@@H]1C [Rifaximin]
EC50 [1]: 1800 nM
times less potent than rifamycin SV at 0.3 μM (PXR) ([1]; rifaximin at 30 μM): 2.5 times
IC50 [2]: 83000 nM
MIC ([6]; DSMZ11975, read-out: MIC): 25 µg/mL (≈ 31.8 µM)
IC50 [4, 7]: 93.9 nM
inhibition of LPS-induced NFκB activity [4, 8]: did not inhibit
inhibition of TNFα-induced NFκB activity [4, 8]: did not inhibit

Cc1ncc([N+](=O)[O-])n1CCO [Metronidazole]
MIC ([6]; DSMZ11975, read-out: MIC): 25 µg/mL (≈ 146 µM)

NC[C@@H]1O[C@H](O[C@H]2[C@@H](O)[C@H](O[C@@H]3[C@@H](O)[C@H](N)C[C@H](N)[C@H]3O[C@H]3O[C@H](CN)[C@@H](O)[C@H](O)[C@H]3N)O[C@@H]2CO)[C@H](N)[C@@H](O)[C@@H]1O [Neomycin]
MIC [6]: >100 µg/mL
